Laboratory results taken from patent publication US11518760B2 (Liverpool School of Tropical Medicine, priority 2017, dated 2022).

test system: C6/36 Aedes albopictus cell line infected with Wolbachia pipientis (Wolbachia strain wAlbB); assay: In vitro insect cell line assay (anti-Wolbachia screen, SYTO 11 high content imaging); assay type: cell-based; details: 168 h; C6/36 Aedes albopictus cells infected with Wolbachia pipientis wAlbB, 7 days incubation, SYTO 11 imaging; read-out: In vitro anti-Wolbachia activity
Summary of the method: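 SYTO 11 staining (15 min), high-content imaging and texture analysis were the read-out on day 7. Before that, C6/36 mosquito cells carrying Wolbachia strain wAlbB were incubated at 26 °C with test compound at 5 μM final, alongside DMSO-only control wells.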

Compound	EC50 [nM]
C[C@H]1OCCN(c2nc(NCc3cccnc3C(F)(F)F)c3cccnc3n2)[C@H]1C [Example 287, 2-((2R,3S)-2,3-dimethylmorpholino)-N-((2-(trifluoromethyl)pyridin-3-yl)methyl)pyrido[2,3-d]pyrimidin-4-amine]	0.01 to 1
CC(C)Nc1nc(NCc2ccccc2Cl)c2ccccc2n1 [Example 137, N^4-(2-chlorobenzyl)-N^2-isopropylquinazoline-2,4-diamine]	1000 to 100000
CN(Cc1ccccc1C(F)(F)F)c1ncnc2ccsc12 [Example 44, N-methyl-N-(2-(trifluoromethyl)benzyl)thieno[3,2-d]pyrimidin-4-amine]	10 to 100
CC(Nc1ncnc2cc(-c3ccccc3)sc12)c1ccccc1C(F)(F)F (centres unmarked) [Example 98, 6-phenyl-N-(1-(2-(trifluoromethyl)phenyl)ethyl)thieno[3,2-d]pyrimidin-4-amine]	1000 to 100000
FC(F)(F)c1cccc2c1CN(c1ncnc3ccsc13)C2 [Example 83]	1000 to 100000
FC(F)(F)c1cccc(CNc2ncnc3ccsc23)c1 [Example 81]	1000 to 100000
FC1(F)CCN(c2nc(NCc3ccccc3C(F)(F)F)c3cccnc3n2)CC1 [Example 196, 2-(4,4-difluoropiperidin-1-yl)-N-(2-(trifluoromethyl)benzyl)pyrido[2,3-d]pyrimidin-4-amine]	0.01 to 1
CC(C)Nc1nc(NCc2c(F)cccc2Cl)c2sccc2n1 [Example 30, N^4-(2-chloro-6-fluorobenzyl)-N^2-isopropylthieno[3,2-d]pyrimidine-2,4-diamine]	100 to 1000
Cc1nc(N(C)C(C)c2ccccc2C(F)(F)F)c2sc(C=O)cc2n1 (centres unmarked) [Example 77]	100 to 1000
FC(F)(F)OC1CCN(c2nc(NCc3cccnc3C(F)(F)F)c3cccnc3n2)C1 (centres unmarked) [Example 297, 2-(3-(trifluoromethoxy)pyrrolidin-1-yl)-N-((2-(trifluoromethyl)pyridin-3-yl)methyl)pyrido[2,3-d]pyrimidin-4-amine]	< 0.01
CC1COCCN1c1nc(NCc2cccnc2C(F)(F)F)c2cccnc2n1 (centres unmarked) [Example 193, 2-(3-methylmorpholino)-N-((2-(trifluoromethyl)pyridin-3-yl)methyl)pyrido[2,3-d]pyrimidin-4-amine]	1 to 10
CC(Nc1ncnc2ccsc12)c1ccccc1Cl (centres unmarked) [Example 38, N-(1-(2-chlorophenyl)ethyl)thieno[3,2-d]pyrimidin-4-amine]	1000 to 100000
CC1COCCN1Cc1nc(NCc2cccnc2C(F)(F)F)c2cccnc2n1 (centres unmarked) [Example 229, 2-((3-methylmorpholino)methyl)-N-((2-(trifluoromethyl)pyridin-3-yl)methyl)pyrido[2,3-d]pyrimidin-4-amine]	1000 to 100000
CC(C)Nc1nc(NCc2c(Cl)cccc2Cl)c2sccc2n1 [Example 27, N^4-(2,6-dichlorobenzyl)-N-isopropylthieno[3,2-d]pyrimidine-2,4-diamine]	1000 to 100000
C[C@H]1COCCN1c1nc(NCc2cccnc2C(F)(F)F)c2cccnc2n1 [Example 210, (S)-2-(3-methylmorpholino)-N-((2-(trifluoromethyl)pyridin-3-yl)methyl)pyrido[2,3-d]pyrimidin-4-amine]	1 to 10
CN1CC(Nc2nc(NCc3cccnc3C(F)(F)F)c3cccnc3n2)C1 [Example 148, N^2-(1-methylazetidin-3-yl)-N^4-((2-(trifluoromethyl)pyridin-3-yl)methyl)pyrido[2,3-d]pyrimidine-2,4-diamine]	1000 to 100000
CC(C)Nc1nc(NCc2ccc(C(F)(F)F)nc2)c2ncccc2n1 [Example 125, N^2-isopropyl-N^4-((6-(trifluoromethyl)pyridin-3-yl)methyl)pyrido[3,2-d]pyrimidine-2,4-diamine]	1000 to 100000
Cc1ccc(Nc2ncnc3ccsc23)c(C)c1 [Example 31, N-(2,4-dimethylphenyl)thieno[3,2-d]pyrimidin-4-amine]	1000 to 100000
FC(F)(F)c1ccccc1CNc1nc(NC2CC2)nc2ncccc12 [Example 156, N^2-cyclopropyl-N^4-(2-(trifluoromethyl)benzyl)pyrido[2,3-d]pyrimidine-2,4-diamine]	1 to 10
FC(F)(F)c1ncccc1CNc1ncnc2ncccc12 [Example 170, N-((2-(trifluoromethyl)pyridin-3-yl)methyl)pyrido[2,3-d]pyrimidin-4-amine]	1000 to 100000
FC(F)Sc1nc(NCc2cccnc2C(F)(F)F)c2cccnc2n1 [Example 191, 2-((difluoromethyl)thio)-N-((2-(trifluoromethyl)pyridin-3-yl)methyl)pyrido[2,3-d]pyrimidin-4-amine]	100 to 1000

Compound	EC50 [nM]
FC(F)(F)c1ccccc1C1CCCN1c1ncnc2ccsc12 (centres unmarked) [Example 79]	100 to 1000
CC(C)Nc1nc(NCc2ccccc2S(C)(=O)=O)c2sccc2n1 [Example 117, N^2-isopropyl-N^4-(2-(methylsuifonyl)benzyl)thieno[3,2-d]pyrimidine-2,4-diamine]	100 to 1000
C[C@H]1COCCN1c1nc(N2CCC2c2cccnc2C(F)(F)F)c2cccnc2n1 (stereo partly drawn) [Example 289, (3S)-3-methyl-4-(4-(2-(2-(trifluoromethyl)pyridin-3-yl)azetidin-1-yl)pyrido[2,3-d]pyrimidin-2-yl)morpholine]	0.01 to 1
CC1COCCN1c1nc(NCc2cccnc2C(F)(F)F)c2cc(F)cnc2n1 (centres unmarked) [Example 303, 6-fluoro-2-(3-methylmorpholino)-N-((2-(trifluoromethyl)pyridin-3-yl)methyl)pyrido[2,3-d]pyrimidin-4-amine]	100 to 1000
FC(F)(F)c1nc(NCc2ccccc2C(F)(F)F)c2sccc2n1 [Example 56, 2-(trifluoromethyl)-N-(2-(trifluoromethyl)benzyl)thieno(3,2-d]pyrimidin-4-amine]	10 to 100
FC1CCN(c2nc(NCc3cccnc3C(F)(F)F)c3cccnc3n2)CC1 [Example 195, 2-(4-fluoropiperidin-1-yl)-N-((2-(trifluoromethyl)pyridin-3-yl)methyl)pyrido[2,3-d]pyrimidin-4-amine]	1 to 10
CNCc1nc(NCc2ccccc2C(F)(F)F)c2sccc2n1 [Example 154, 2-((methylamino)methyl)-N-(2-(trifluoromethyl)benzyl)thieno[3,2-d]pyrimidin-4-amine]	1000 to 100000
CC1COCCN1c1nc(NCc2cccnc2C(F)(F)F)c2cncnc2n1 (centres unmarked) [Example 306, 2-(3-methylmorpholino)-N-((2-(trifluoromethyl)pyridin-3-yl)methyl)pyrimido[4,5-d]pyrimidin-4-amine]	1000 to 100000
CC1COCCN1c1nc(NCc2ccccc2C(F)(F)F)c2nccnc2n1 (centres unmarked) [Example 310, 2-(3-methylmorpholino)-N-(2-(trifluoromethyl)benzyl)pteridin-4-amine]	100 to 1000
FC1(F)CCN(c2nc(N3CCC3c3cccnc3C(F)(F)F)c3cccnc3n2)C1 (centres unmarked) [Example 220, 2-(3,3-difluoropyrrolidin-1-yl)-4-(2-(2-(trifluoromethyl)pyridin-3-yl)azetidin-1-yl)pyrido[2,3-d]pyrimidine]	0.01 to 1
CC(C)N(C)c1nc(N2CCOCC2c2ccccc2C(F)(F)F)c2cccnc2n1 (centres unmarked) [Example 188, N-isopropyl-N-methyl-4-(3-(2-(trifluoromethyl)phenyl)morpholino)pyrido[2,3-d]pyrimidin-2-amine]	1000 to 100000
CC1(C)COCCN1c1nc(NCc2ccccc2C(F)(F)F)c2cccnc2n1 [Example 246, 2-(3,3-dimethylmorpholino)-N-(2-(trifluoromethyl)benzyl)pyrido[2,3-d]pyrimidin-4-amine]	100 to 1000
CN1CCN(c2nc(NCc3ccccc3C(F)(F)F)c3sccc3n2)CC1 [Example 95, 2-(4-methylpiperazin-1-yl)-N-(2-(trifluoromethyl)benzyl)thieno[3,2-d]pyrimidin-4-amine]	1000 to 100000
FC(F)(F)c1ncccc1CNc1nc(CN2CCC(Cl)CC2)nc2ncccc12 [Example 227, 2-((4-chloropiperidin-1-yl)methyl)-N-((2-(trifluoromethyl)pyridin-3-yl)methyl)pyrido[2,3-d]pyrimidin-4-amine]	100 to 1000
FC(F)OC1CCCN(c2nc(NCc3cccnc3C(F)(F)F)c3cccnc3n2)C1 (centres unmarked) [Example 292, 2-(3-(difluoromethoxy)piperidin-1-yl)-N-((2-(trifluoromethyl)pyridin-3-yl)methyl)pyrido[2,3-d]pyrimidin-4-amine]	< 0.01
FC(F)(F)c1ncccc1CNc1nc(NC2CNC2)nc2ncccc12 [Example 147, N^2-(azetidin-3-yl)-N^4-((2-(trifluoromethyl)pyridin-3-yl)methyl)pyrido[2,3-d]pyrimidine-2,4-diamine]	1000 to 100000
FC(F)(F)c1ccccc1CNc1nc(CN2CC(C(F)(F)F)C2)nc2ncccc12 [Example 226]	100 to 1000
FC(F)(F)c1ccccc1CNc1nc(NCCN2CCCC2)nc2ccsc12 [Example 91, N^2-(2-(pyrrolidin-1-yl)ethyl)-N^4-(2-(trifluoromethyl)benzyl)thieno[3,2-d]pyrimidine-2,4-diamine]	1000 to 100000
Cc1ccc(-c2cnc3ncnc(NCc4cccnc4C(F)(F)F)c3c2)cn1 [Example 181]	1000 to 100000
CC1(C#N)CCN(c2nc(NCc3cccnc3C(F)(F)F)c3cccnc3n2)CC1 [Example 250, 4-methyl-1-(4-(((2-(trifluoromethyl)pyridin-3-yl)methyl)amino)pyrido[2,3-d]pyrimidin-2-yl)piperidine-4-carbonitrile]	0.01 to 1
CC1COCCN1c1nc(NCc2ccccc2C(F)(F)F)c2cncnc2n1 (centres unmarked) [Example 307, 2-(3-methylmorpholino)-N-(2-(trifluoromethyl)benzyl)pyrimido[4,5-d]pyrimidin-4-amine]	1000 to 100000

same assay, conditions: C6/36, 168 h, read-out: In vitro anti-Wolbachia activity

Compound	EC50 [nM]
Cc1cc2ncnc(N(C)C(C)c3ccccc3C(F)(F)F)c2s1 (centres unmarked) [Example 1]	1000 to 100000

same assay, conditions: C6/36 Aedes albopictus cells infected with Wolbachia pipientis wAlbB, 7 days incubation, SYTO 11 imaging; read-out: In vitro anti-Wolbachia activity

Compound	EC50 [nM]
2-((3R)-3,5-dimethylmorpholino)-N-(2-(trifluoromethyl)benzyl)pyrido[2,3-d]pyrimidin-4-amine [Example 302]	< 0.01
